The values that follow come from patent publication US20240116883A1, “CANNABINOID DERIVATIVES AND THEIR USE THE TREATMENT OF INFLAMMATION AND/OR PAIN AND/OR OBESITY” (Yissum Research Development Company of The Hebrew …, priority 2020, published 2024).

The structures appear in SMILES notation.

Assay [1] relates to swelling, pain, TNF-alpha. In words: biological activity assays of FIGS. 1-4 (swelling, pain, TNF-alpha, weight bearing). The format is in vivo, mice. To be noted: summary of FIGS. 1-4; varied doses, compared to CBD/CBG. The protocol: After an additional 90 minutes, the mice were decapitated, and trunk blood was collected for determination of TNF-α levels. […]
TNF-α determination assay: TNF-α (pg/ml) in cell culture supernatants or in mouse blood plasma was determined by the “sandwich” ELISA technique. ELISA reagents were used according to the manufacturer's protocol (R & D Systems).

Assay [2] relates to TPA induced erythema of mouse ear. Particulars: application of a 100 pg/ml solution; cited from earlier work.
The target in assay [3] is cannabinoid receptor CB2 (Homo sapiens, UniProt P34972). Particulars: cited from earlier work.
The test system of assay [4] is phenylbenzoquinone writhing. To be noted: mice; versus aspirin; cited from earlier work.

Chain of cannabinoid receptor CB2 (P34972 whole entry): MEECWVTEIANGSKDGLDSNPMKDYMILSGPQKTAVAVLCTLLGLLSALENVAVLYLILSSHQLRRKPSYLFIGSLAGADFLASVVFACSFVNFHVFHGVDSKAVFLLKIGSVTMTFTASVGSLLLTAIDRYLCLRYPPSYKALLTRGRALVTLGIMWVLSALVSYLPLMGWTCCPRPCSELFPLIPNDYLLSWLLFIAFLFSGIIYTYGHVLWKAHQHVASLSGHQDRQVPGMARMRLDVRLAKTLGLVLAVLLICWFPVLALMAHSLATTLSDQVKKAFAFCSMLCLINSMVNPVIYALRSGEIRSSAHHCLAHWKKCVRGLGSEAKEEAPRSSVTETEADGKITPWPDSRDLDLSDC

With `CCCCCCC(C)(C)c1cc(O)c(C/C=C(\C)CCC=C(C)C)c(OC)c1` [HUM-223, (E)-2-(3,7-dimethylocta-2,6-dien-1-yl)-3-methoxy-5-(2-methyloctan-2-yl)phenol], the anti-inflammatory activity result in assay [1] is “notable anti-inflammatory activity”.

For the compound `CCCCCc1cc(O)c([C@@H]2C=C(C)CC[C@H]2C(C)C)c(O)c1C` [HUM-217, (1′S,2′S)-2′-isopropyl-3,5′-dimethyl-4-pentyl-1′,2′,3′,4′-tetrahydro-[1,1′-biphenyl]-2,6-diol], in assay [1], the anti-inflammatory activity result is “notable anti-inflammatory activity”.

As for `C=C(C)[C@@H]1CCC(C)=C[C@H]1c1c(O)cc(CCCCC)c(C)c1O` [HUM-216, (1′R,2′R)-3,5′-dimethyl-4-pentyl-2′-(prop-1-en-2-yl)-1′,2′,3′,4′-tetrahydro-[1,1′-biphenyl]-2,6-diol], the anti-inflammatory activity entry in assay [1] is on record as “notable anti-inflammatory activity”.

For the compound `CCCCCc1cc(O)c(C/C=C(\C)CCC=C(C)C)c(O)c1C` [HUM-218, (E)-2-(3,7-dimethylocta-2,6-dien-1-yl)-4-methyl-5-pentylbenzene-1,3-diol], in assay [1], the anti-inflammatory activity entry is “notable anti-inflammatory activity”.

On to `C=C(C)[C@@H]1CCC(C)=C[C@H]1c1c(O)cc(CCCCC)cc1O` [CBD, Cannabidiol], for which the “inhibition of the inflammation response” value in assay [2] was 92%. For the same compound, in assay [3], the “binding to CB2” value is listed as “does not bind”. Moreover, the “analgesic potency compared to aspirin” value in assay [4] is “much more potent than aspirin”.
